Results from patent US10087178B2, “Substituted spiropyrido[1,2-a]pyrazine derivative and medicinal use thereof as HIV integrase inhibitor” (priority 2012, dated 2018).
Where a name gives a salt, the structure may show the parent alone.

Each compound was assayed on HIV-1 NL4-3 strain (assay: Evaluation of antiviral activity: acute infection system of MT-4 cell with HIV-1 NL4-3 strain). Conditions: Human immunodeficiency virus 1, NL43, MT4, 120 h, MT-4 cells infected with HIV-1 NL4-3 strain (MOI 0.05), cultured 5 days, Cell Titer-Glo; read-out: antiviral activity (EC50).
Type: cell-based

Row | Compound | EC50
1 | CCO[C@H]1C[C@@]2(CN(C)C(=O)c3c(O)c(=O)c(C(=O)NCc4cccc(Cl)c4F)cn32)C1 [Example S28, N-(3-chloro-2-fluorobenzyl)- trans-3-ethoxy-9′-hydroxy-2′-methyl-1′,8′-dioxo-1′,2′,3′,8′-tetrahydrospiro[cyclobutane-1,4′-pyrido[1,2-a]pyrazine]-7′-carboxamide hydrochloride] | 3.6 nM
2 | CC(C)N1C[C@]2(C[C@@H](CO)C2)n2cc(C(=O)NCc3ccc(F)cc3F)c(=O)c(O)c2C1=O [Example S24, N-(2,4-difluorobenzyl)-9′-hydroxy-trans-3-(hydroxymethyl)-2′-isopropyl-1′,8′-dioxo-1′,2′,3′,8′-tetrahydrospiro[cyclobutane-1,4′-pyrido[1,2-a]pyrazine]-7′-carboxamide hydrobromide] | 16 nM
3 | CCN1C[C@]2(C[C@@H](COC)C2)n2cc(C(=O)NCc3cccc(Cl)c3F)c(=O)c(O)c2C1=O [Example S45, N-(3-chloro-2-fluorobenzyl)-2′-ethyl-9′-hydroxy-trans-3-(methoxymethyl)-1′,8′-dioxo-1′,2′,3′,8′-tetrahydrospiro[cyclobutane-1,4′-pyrido[1,2-a]pyrazine]-7′-carboxamide hydrochloride] | 3.9 nM
4 | CC(C)N1C(=O)c2c(O)c(=O)c(C(=O)NCc3ccc(F)cc3F)cn2C[C@]12C[C@@H](O)C2 [Example S54, N-(2,4-difluorobenzyl)- trans-3,9′-dihydroxy-2′-isopropyl-1′,8′-dioxo-1′,2′,4′,8′-tetrahydrospiro[cyclobutane-1,3′-pyrido[1,2-a]pyrazine]-7′-carboxamide hydrochloride] | 27 nM
5 | CCO[C@H]1C[C@]2(CN(C)C(=O)c3c(O)c(=O)c(C(=O)NCc4cccc(Cl)c4F)cn32)C1 [Example S29, N-(3-chloro-2-fluorobenzyl)- cis-3-ethoxy-9′-hydroxy-2′-methyl-1′,8′-dioxo-1′,2′,3′,8′-tetrahydrospiro[cyclobutane-1,4′-pyrido[1,2-a]pyrazine]-7′-carboxamide hydrochloride] | 4.3 nM
6 | CC(C)N1C[C@]2(C[C@H](OS(C)(=O)=O)C2)n2cc(C(=O)NCc3ccc(F)cc3F)c(=O)c(O)c2C1=O [Example S35, 7′-(2,4-difluorobenzylcarbamoyl)-9′-hydroxy-2′-isopropyl-1′,8′-dioxo-1′,2′,3′,8′-tetrahydrospiro[cyclobutane-1,4′-pyrido[1,2-a]pyrazine]- cis-3-yl methanesulfonate hydrochloride] | 7.3 nM
7 | CCOC[C@H]1C[C@@]12CN(C)C(=O)c1c(O)c(=O)c(C(=O)NCc3ccc(OC)c(Cl)c3F)cn12 [Example T31, (1S,2S)-N-(3-chloro-2-fluoro-4-methoxybenzyl)-2-(ethoxymethyl)-9′-hydroxy-2′-methyl-1′,8′-dioxo-1′,2′,3′,8′-tetrahydrospiro[cyclopropane-1,4′-pyrido[1,2-a]pyrazine]-7′-carboxamide] | 12 nM
8 | CC(=O)NC[C@H]1C[C@]2(CN(C(C)C)C(=O)c3c(O)c(=O)c(C(=O)NCc4ccc(F)cc4F)cn32)C1 [Example S38, cis-3-(acetamidomethyl)-N-(2,4-difluorobenzyl)-9′-hydroxy-2′-isopropyl-1′,8′-dioxo-1′,2′,3′,8′-tetrahydrospiro[cyclobutane-1,4′-pyrido[1,2-a]pyrazine]-7′-carboxamide hydrochloride] | 50 nM
9 | CC(C)N1C(=O)c2c(O)c(=O)c(C(=O)NCc3cccc(Cl)c3F)cn2C[C@@]12C[C@@H]2CO [Example T47, (1S,2S)-N-(3-chloro-2-fluorobenzyl)-9′-hydroxy-2-(hydroxymethyl)-2′-isopropyl-1′,8′-dioxo-1′,2′,4′,8′-tetrahydrospiro[cyclopropane-1,3′-pyrido[1,2-a]pyrazine]-7′-carboxamide] | 4 nM
10 | COC[C@H]1C[C@]2(CN(C)C(=O)c3c(OC(=O)c4ccccc4)c(=O)c(C(=O)NCc4cccc(Cl)c4F)cn32)C1 [Example S70, 7′-(3-chloro-2-fluorobenzylcarbamoyl)-cis-3-(methoxymethyl)-2′-methyl-1′,8′-dioxo-1′,2′,3′,8′-tetrahydrospiro[cyclobutane-1,4′-pyrido[1,2-a]pyrazin]-9′-yl benzoate] | 1.4 nM

Same assay, conditions: Human immunodeficiency virus 1, NL43, MT4, 120 h, antiviral activity; MT-4 cells infected with HIV-1 NL4-3 (MOI 0.05), 5 days culture, Cell Titer-Glo luminescence

Row | Compound | EC50
11 | CC(C)N1C[C@]2(C[C@@H]2CO)n2cc(C(=O)NCc3ccc(F)cc3F)c(=O)c(O)c2C1=O [Example 13, (1R,2S)—N-(2,4-difluorobenzyl)-9′-hydroxy-2-(hydroxymethyl)-2′-isopropyl-1′,8′-dioxo-1′,2′,3′,8′-tetrahydrospiro[cyclopropane-1,4′-pyrido[1,2-a]pyrazine]-7′-carboxamide hydrochloride] | 5.4 nM

Same assay, conditions: Human immunodeficiency virus 1, NL43, MT4, 120 h, antiviral activity; MT-4 cells infected with HIV-1 NL4-3 (MOI 0.05), 5 days culture, Cell Titer-Glo luminescence; read-out: EC50

Row | Compound | EC50
12 | CO[C@H]1C[C@@]2(CN(C)C(=O)c3c(O)c(=O)c(C(=O)NCc4ccc(F)cc4F)cn32)C1 [Example S13, N-(2,4-difluorobenzyl)-9′-hydroxy-trans-3-methoxy-2′-methyl-1′,8′-dioxo-1′,2′,3′,8′-tetrahydrospiro[1,2-a]pyrazine]-1,4′-pyrido[1,2-a]pyrazine]-7′-carboxamide hydrochloride] | 4.5 nM

Same assay, conditions: Human immunodeficiency virus 1, NL43, MT4, 120 h, read-out: antiviral activity (EC50), MT-4 cells infected with HIV-1 NL4-3 strain (MOI 0.05), cultured 5 days, Cell Titer-Glo

Row | Compound | EC50
13 | CCOc1cc(Cl)c(F)c(CNC(=O)c2cn3c(c(O)c2=O)C(=O)N(C)C[C@@]32C[C@@H]2COC)c1 [Example T25, (1S,2S)-N-(3-chloro-5-ethoxy-2-fluorobenzyl)-9′-hydroxy-2-(methoxymethyl)-2′-methyl-1′,8′-dioxo-1′,2′,3′,8′-tetrahydrospiro[cyclopropane-1,4′-pyrido[1,2-a]pyrazine]-7′-carboxamide hydrochloride] | 7 nM
14 | CCOc1ccc(CNC(=O)c2cn3c(c(O)c2=O)C(=O)N(C)C[C@]32C[C@H]2COC)c(F)c1Cl [Example T38, (1R,2R)-N-(3-chloro-4-ethoxy-2-fluorobenzyl)-9′-hydroxy-2-(methoxymethyl)-2′-methyl-1′,8′-dioxo-1′,2′,3′,8′-tetrahydrospiro[cyclopropane-1,4′-pyrido[1,2-a]pyrazine]-7′-carboxamide hydrochloride] | 77 nM
15 | CN1C[C@@]2(C[C@@H]2CO)n2cc(C(=O)NCc3ccc(F)cc3F)c(=O)c(O)c2C1=O [Example T4, (1S,2S)-N-(2,4-difluorobenzyl)-9′-hydroxy-2-(hydroxymethyl)-2′-methyl-1′,8′-dioxo-1′,2′,3′,8′-tetrahydrospiro[cyclopropane-1,4′-pyrido[1,2-a]pyrazine]-7′-carboxamide hydrochloride] | 30 nM
16 | CCN1C(=O)c2c(O)c(=O)c(C(=O)NCc3ccc(F)cc3F)cn2C[C@@]12C[C@@H]2CO [Example T39, (1S,2S)-N-(2,4-difluorobenzyl)-2′-ethyl-9′-hydroxy-2-(hydroxymethyl)-1′,8′-dioxo-1′,2′,4′,8′-tetrahydrospiro[cyclopropane-1,3′-pyrido[1,2-a]pyrazine]-7′-carboxamide hydrochloride] | 2.8 nM

Same assay, conditions: MT-4 cells infected with HIV-1 NL4-3 strain (MOI 0.05), cultured 5 days, Cell Titer-Glo; hydrobromide; read-out: antiviral activity (EC50)

Row | Compound | EC50
17 | COC[C@H]1C[C@]2(CN(C)C(=O)c3c(O)c(=O)c(C(=O)NCc4cccc(Cl)c4F)cn32)C1 [Example 31, N-(3-chloro-2-fluorobenzyl)-9′-hydroxy-cis-3-(methoxymethyl)-2′-methyl-1′,8′-dioxo-1′,2′,3′,8′-tetrahydrospiro[cyclobutane-1,4′-pyrido[1,2-a]pyrazine]-7′-carboxamide hydrobromide] | 1.9 nM

Same assay, conditions: MT-4 cells infected with HIV-1 NL4-3 strain (MOI 0.05), cultured 5 days, Cell Titer-Glo; read-out: antiviral activity (EC50)

Row | Compound | EC50
18 | N-(3-chloro-2-fluorobenzyl)- 9′-hydroxy-cis-3-methoxy-2′- methyl-1′,8′-dioxo- 1′,2′,4′,8′- tetrahydrospiro[cyclobutane- 1,3′-pyrido[1,2-a]pyrazine]- 7′-carboxamide hydrochloride [Example S63] | 4 nM
